Here are results for 14 compounds from ChEMBL document CHEMBL5241077 (Eur J Med Chem, 2021).

Assay [1] concerns dengue virus type 2. Kind of assay: Antiviral activity against DENV2 […] infected in hamster BHK-21 cells assessed as reduction viral titer incubated for 48 hrs by plaque assay. In kind it is functional, organism-based. As to conditions: BHK-21, 48 h.
In assay [2] the test system is dengue virus type 2. As to the kind of experiment: Antiviral activity against DENV2 New Guinea C infected in hamster BHK-21 cells assessed as reduction viral titer incubated for 48 hrs by plaque assay. Format: functional, organism-based. Conditions: BHK-21, 48 h.
The subject of assay [3] is dengue virus type 2. As to the kind of experiment: Antiviral activity against DENV2 infected hamster BHK cells assessed as inhibition of virus-induced cytopathogenicity and measured after 20 hrs by flow cytometry. In kind it is functional, organism-based.
Assay [4] deals with dengue virus type 2. Kind of assay: Antiviral activity against DENV2 infected in human HEK293 cells assessed as reduction in viral load incubated for 3 days by plaque reduction assay. As to conditions: HEK293, 72 h, time 3 day. Format: functional.
Assay [5] is described as follows: Binding affinity to Dengue virus serotype 2 envelope stem (419 to 447 residues) trimer peptide incubated for 3 hrs by fluorescence polarization assay. More on the design: species or system dengue virus type 2.
Assay [6] deals with dengue virus type 2. As to the kind of experiment: Antiviral activity against DENV2 ThNH-7/93 infected in hamster BHK-21 cells assessed as reduction in viral entry incubated for 2 hrs by focus forming assay. Format: functional, organism-based. As to conditions: ThNH-7/93, BHK-21, 2 h.
Assay [7] concerns dengue virus type 2. Kind of assay: Antiviral activity against DENV2 infected in African green monkey Vero E6 cells assessed as inhibition of viral titer incubated for 48 hrs by plaque reduction assay. In kind it is functional, organism-based.
Assay [8] concerns dengue virus type 2. As to the kind of experiment: Antiviral activity against DENV2 TSV01 infected in Asian tiger mosquito C6/36 cells assessed as reduction in plaque forming unit incubated for 1 hrs by propidium iodide staining based fluorescence analysis. In kind it is functional, organism-based. As to conditions: TSV01, C6/36, 1 h.
Assay [9] deals with dengue virus type 2. Kind of assay: Antiviral activity against DENV2 ThNH-7/93 infected in hamster BHK-21 cells assessed as reduction in virus titer incubated for 2 hrs by focus forming assay. In kind it is functional, organism-based. As to conditions: ThNH-7/93, BHK-21, 2 h.
Assay [10] has as its system dengue virus type 2. As to the kind of experiment: Antiviral activity against DENV2 16681 infected in African green monkey Vero E6 cells assessed as inhibition of virus-induced cytopathic effect incubated for 1.5 hrs by plaque assay. In kind it is functional, organism-based. As to conditions: Dengue virus, 16681, Vero.
In assay [11] the test system is dengue virus type 2. Kind of assay: Antiviral activity against DENV2 PL046 infected in hamster BHK-21 cells assessed as reduction in plaque forming unit incubated for 7 days by crystal violet staining analysis. In kind it is functional, organism-based. As to conditions: PL046, BHK-21, 168 h.
Assay [12] deals with dengue virus type 2. Kind of assay: Antiviral activity against DENV2 infected in African green monkey Vero E6 cells assessed as inhibition of viral replication incubated for 5 days by crystal violet staining based plaque reduction assay. Format: functional, organism-based. As to conditions: 120 h.

Converted amounts (≈) assume the structure as drawn.

As for `CC(=O)N[C@@H]1[C@@H](O[C@@H]2O[C@@H](C(=O)O)[C@@H](O)[C@H](O)[C@H]2O)[C@@H](OS(=O)(=O)O)[C@@H](CO)O[C@H]1O`, the IC50 is 0.3 µg/mL (≈ 0.628 µM) in the assay with dengue virus type 2 [1] and 3 µg/mL (≈ 6.28 µM) in the assay on dengue virus type 2 [2]. For `O=S(=O)(O)O[C@@H]1[C@@H](OS(=O)(=O)O)[C@H](O[C@@H]2CO[C@@H](O)[C@H](OS(=O)(=O)O)[C@H]2OS(=O)(=O)O)OC[C@H]1O`, the EC50 in the assay on dengue virus type 2 [3] came to 30 µg/mL (≈ 49.8 µM). In the case of `Nc1c(C(=O)Nc2nc(-c3ccccc3)cs2)sc2nc3c(cc12)CN(c1ccccc1)CC3`, the IC90 with dengue virus type 2 [4] was 0.025 µM. Consider `N#C/C(=N\Nc1cccc(Cl)c1)C(=O)c1ccco1`, for which the concentration for half-maximal inhibition (IC50) in [5] came to 15 µM. For the compound `CC(=O)N[C@@H]1[C@@H](O[C@@H]2O[C@H](C(=O)O)[C@@H](O)[C@H](O)[C@H]2O)[C@@H](O)[C@@H](OS(=O)(=O)O)O[C@H]1O`, the EC50 in the assay on dengue virus type 2 [6] was found to be 1.5 µg/mL (≈ 3.24 µM). As for `CO[C@H]1O[C@H](COS(=O)(=O)O)[C@H](O[C@@H]2O[C@H](CO)[C@H](O)[C@H](C)[C@H]2OS(=O)(=O)O)[C@H](O)[C@H]1OS(=O)(=O)O`, in the assay on dengue virus type 2 [7], the IC50 came to 0.14 µg/mL (≈ 0.235 µM). `O=P(O)(O)OC[C@H]1O[C@H](OC2[C@H](OS(=O)(=O)O)[C@@H](OC3C(OS(=O)(=O)O)O[C@H](COS(=O)(=O)O)[C@@H](OS(=O)(=O)O)[C@@H]3OS(=O)(=O)O)O[C@H](COS(=O)(=O)O)[C@H]2OS(=O)(=O)O)[C@@H](OS(=O)(=O)O)[C@@H](OS(=O)(=O)O)[C@@H]1OS(=O)(=O)O` (stereo not given in full): in the assay with dengue virus type 2 [3], the EC50 is 200 µg/mL (≈ 144 µM). As for `O=C(O)c1cc(=O)c2ccc(S[C@@H](/C=C/C=C/CCOc3ccc(Cl)c(Cl)c3)[C@H](O)c3cccc(C(F)(F)F)c3)cc2o1`, the IC50 in the assay on dengue virus type 2 [8] amounted to 6.8 µM. With `Nc1c(C(=O)Nc2nc(-c3ccccc3)cs2)sc2nc3c(cc12)CC(c1ccccc1)CC3` (stereo not given), the IC90 in the assay with dengue virus type 2 [4] was determined as 0.112 µM. With `C[C@@H]1O[C@H](C)[C@@H](O)[C@H](O)[C@@H]1OS(=O)(=O)O`, the IC50 with dengue virus type 2 [9] turned out to be 4.7 µg/mL (≈ 19.4 µM). Consider `O=C(O)C[C@@H]1C(=O)O[C@H]2[C@@H]3OC(=O)c4cc(O)c(O)c(O)c4-c4c(cc(O)c(O)c4O)C(=O)OC[C@H]2O[C@@H](OC(=O)c2cc(O)c(O)c(O)c2)[C@@H]3OC(=O)c2cc(O)c(O)c3c2[C@H]1[C@H](O)C(=O)O3` [CHEBULAGIC ACID], for which the EC50 in the assay on dengue virus type 2 [10] was 13.1 µM. On to `C[C@H]1c2cccc(O)c2C(=O)C2=C(O)[C@]3(O)C(=O)C(C(N)=O)=C(O)[C@@H](N(C)C)[C@@H]3[C@@H](O)[C@@H]21` [DOXYCYCLINE], for which the IC50 in the assay with dengue virus type 2 [11] worked out at 55.6 µM. As for `O=C1O[C@H]2[C@@H]3OC(=O)c4cc(O)c(O)c(O)c4-c4c(cc(O)c(O)c4O)C(=O)OC[C@H]2O[C@@H](OC(=O)c2cc(O)c(O)c(O)c2)[C@@H]3OC(=O)c2cc(O)c(O)c3c2[C@@H]2C1=CC(=O)[C@](O)(O3)C2(O)O` [GERANIIN], in the assay on dengue virus type 2 [12], the IC50 was determined as 1.75 µM. In the case of `CN(C)[C@@H]1C(O)=C(C(=O)NCN2CCCC2)C(=O)[C@@]2(O)C(O)=C3C(=O)c4c(O)cccc4[C@@](C)(O)[C@H]3C[C@@H]12` [ROLITETRACYCLINE], the IC50 with dengue virus type 2 [11] came out at 67.1 µM.
